The text below walks through data of BindingDB's records for doi:10.7270/Q21J98DJ (The Scripps Research Institute Molecular Screening Center, 2014).

The test concerns the target Disintegrin and metalloproteinase domain-containing protein 17 (Homo sapiens, UniProt P78536). Briefly: exosite inhibitors of ADAM17, dose response, biochemical (AID 743260).

Chain of Disintegrin and metalloproteinase domain-containing protein 17 (P78536 whole entry, the tested form may be a part): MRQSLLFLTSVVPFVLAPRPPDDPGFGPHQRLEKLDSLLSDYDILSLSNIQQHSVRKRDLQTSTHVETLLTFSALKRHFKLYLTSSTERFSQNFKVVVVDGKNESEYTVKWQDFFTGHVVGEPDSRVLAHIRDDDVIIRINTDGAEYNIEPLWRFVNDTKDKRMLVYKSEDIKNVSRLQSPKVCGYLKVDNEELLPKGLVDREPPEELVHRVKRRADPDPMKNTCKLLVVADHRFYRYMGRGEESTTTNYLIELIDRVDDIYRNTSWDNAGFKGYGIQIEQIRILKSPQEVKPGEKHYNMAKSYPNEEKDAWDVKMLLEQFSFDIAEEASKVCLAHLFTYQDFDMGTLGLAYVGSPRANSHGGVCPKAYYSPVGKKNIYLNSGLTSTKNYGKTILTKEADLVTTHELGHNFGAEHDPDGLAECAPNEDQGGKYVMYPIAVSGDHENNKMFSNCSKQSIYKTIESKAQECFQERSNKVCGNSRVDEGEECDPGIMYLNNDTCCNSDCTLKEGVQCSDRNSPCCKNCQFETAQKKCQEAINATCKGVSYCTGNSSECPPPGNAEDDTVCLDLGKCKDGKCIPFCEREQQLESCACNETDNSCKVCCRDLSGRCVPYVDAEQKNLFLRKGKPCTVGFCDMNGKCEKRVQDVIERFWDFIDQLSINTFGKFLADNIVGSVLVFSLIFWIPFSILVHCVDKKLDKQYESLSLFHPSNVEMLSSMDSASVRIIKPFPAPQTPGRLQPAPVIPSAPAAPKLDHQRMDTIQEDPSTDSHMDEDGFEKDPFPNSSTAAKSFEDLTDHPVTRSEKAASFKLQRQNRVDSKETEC

Take `COC(=O)c1cccc(Cn2c(Cl)c(CN=Nc3ccccc3C)sc2=O)c1` [methyl 3-[[4-chloro-5-[[(2-methylphenyl)hydrazinylidene]methyl]-2-oxo-1,3-thiazol-3-yl]methyl]benzoate]: it took 69.5 µM to reach half-maximal inhibition (IC50). That is a double-digit micromolar value. The figure for `COc1ccc(NC(=O)c2oc3ccccc3c2NC(=O)C(C)(C)C)cc1` [3-(2,2-dimethylpropanoylamino)-N-(4-methoxyphenyl)-1-benzofuran-2-carboxamide] is 69.5 µM; for `CC1CCCN(CCCNC(=O)c2coc3nc4ccccc4nc23)C1` (stereo not drawn) [MLS000046706] it is 69.5 µM; for `COc1cccc(C2c3oc(CO)cc(=O)c3OC(=N)C2C#N)c1` (stereo not drawn) [2-Amino-6-hydroxymethyl-4-(3-methoxy-phenyl)-8-oxo-4,8-dihydro-pyrano[3,2-b]pyran-3-carbonitrile] it is 69.5 µM. The figure for `O=C(Cc1sc(=O)n(-c2ccccc2)c1O)Nc1ccccc1` [2-(2,4-diketo-3-phenyl-thiazolidin-5-yl)-N-phenyl-acetamide] is 46.7 µM; for `CC(=NNC(=N)Sc1cc(O)n(-c2ccccc2)c1O)c1cccs1` [[2,5-bis(oxidanylidene)-1-phenyl-pyrrolidin-3-yl] N'-[(E)-1-thiophen-2-ylethylideneamino]carbamimidothioate] it is 69.5 µM; for `CC(=NNC(=N)Sc1cc(O)n(-c2ccc(Br)cc2)c1O)c1cccs1` [[1-(4-bromophenyl)-2,5-bis(oxidanylidene)pyrrolidin-3-yl] N''-(1-thiophen-2-ylethylideneamino)carbamimidothioate] it is 69.5 µM.

On to `Cc1cccc(NNC2=c3cc(Br)ccc3=NC2=O)c1` [5-bromo-3-[2-(3-methylphenyl)hydrazinyl]indol-2-one], for which the IC50 (usually the point on the concentration scale where inhibition reaches its midpoint) was determined as 69.5 µM. `CCOc1ccc(NC(=O)Cc2sc(=O)n(-c3ccccc3)c2O)cc1` returned an IC50 of 5.73 µM. With `C=c1cc(O)c(CN(C)C)c2oc(=Cc3ccco3)c(O)c12` [(2Z)-7-[(dimethylamino)methyl]-2-(furan-2-ylmethylidene)-6-hydroxy-4-methyl-1-benzofuran-3-one] the figure was 17 µM; with `CCOc1cc(C(c2c(C)[nH][nH]c2=O)c2c(C)[nH][nH]c2=O)ccc1O` [4-[(3-ethoxy-4-hydroxyphenyl)-(3-methyl-5-oxo-1,2-dihydropyrazol-4-yl)methyl]-5-methyl-1,2-dihydropyrazol-3-one], 69.5 µM; with `Cn1c(-c2sccc2OCc2ccc(Cl)cc2Cl)n[nH]c1=S`, 69.5 µM.

`O=C1OCCN1C(=O)C1=[N+](c2ccc(Br)cc2)N[C-](c2ccccc2)[C@H]1c1ccc([N+](=O)[O-])cc1` [SMR000327268] showed an IC50 of 69.5 µM.
